{"source": "patent US20190255175A1", "about": "“ACTIVATION OF TRPA1+ NOCICEPTORS IN THE VAGUS NERVE ATTENUATES SYSTEMIC INFLAMMATION” (THE FEINSTEIN INSTITUTE FOR MEDICAL RESEARCH, priority 2018, published 2019)", "key": {"[1]": {"tested_on": "nodose ganglion neurons", "assay": "Whole-cell patch clamp recordings of nodose ganglion neurons", "type": "cell-based, mice", "method": "Whole-cell patch clamp recordings were made with glass pipettes pulled on a P-97 electrode puller (Sutter Instruments, Novato, Calif.). The resistance of the pipettes was 2-4 MΩ when filled with an intracellular solution (in mM: CsCl 140, HEPES 10, EGTA 5, Mg-ATP 2, NaGTP 0.3, MgCl2 2, Phosphocreatine 10, pH 7.25 adjusted with CsOH). Cells were superfused at a rate of 2 ml/min with an external bath solution containing the following (in mM): 150 NaCl, 2.5 KCl, 10 HEPES, 10 D-glucose, 2 CaCl2, and 1 MgCl2, pH 7.3-7.4. Experiments were performed at room temperature (22-24° C.). Currents from neurons were monitored with an Multiclamp 700B amplifier (Molecular Devices, Union City, Calif.), acquired through Digidata 1550B (Molecular Devices) onto a computer using pClamp 11 software (Molecular Devices). Data were analyzed using Clampfit 11 (Molecular Devices). All chemicals used for electrophysiological recordings were purchased from Sigma. All drugs and solutions were made fresh from drug stock solutions.\n(§1) Using patch clamp recordings, IL-1β responses were recorded in nodose ganglion neurons. Application of IL-1β (20 μg/ml) induced calcium influx as indicated by increase of fluorescence in 6 out of 332 (1.8%) sensory nodose ganglion neurons from VGlut2-GCaMP3 mice. Next, whole-cell patch clamp recordings were carried out on the same neurons that responded to IL-1β in calcium influx analysis. When the membrane potential was held at −65 mV, bath application of IL-1β (20 μg/ml) produced slow inward currents in 4 out of 332 (1.2%) nodose neurons. The amplitude of IL-1β induced currents are 108±23 pA (n=4). […] In current-clamp mode, IL-1β reduced action potential threshold from −25±2 mV to −31±3 mV (n=4). […] To further determine the potential interaction of TRPA1 with IL-1β, nodose ganglion neurons from TRPA1 KO mice were examined in a culture system. […] IL1R1 co-localizes with TRPA1 on nodose ganglion neurons, as was determined using immunohistochemical staining."}, "[2]": {"tested_on": "sensory nodose ganglion neurons", "assay": "Calcium influx (fluorescence) in sensory nodose ganglion neurons from VGlut2-GCaMP3 mice", "type": "cell-based", "conditions": "IL-1β 20 μg/ml; 6 out of 332 neurons", "method": "as §1"}, "[3]": {"tested_on": "vagus nerve", "assay": "Cervical vagus nerve electrophysiological recording after IL-1β challenge", "type": "in vivo, mice", "method": "FIG. 3. TRPA1 is required for IL-1β induced vagus nerve signaling. Vagus nerve firing rate in 60s-Bins (mean±SEM) starting 5 min prior to IL-1β injection (350 ng/kg) indicated by arrow followed by 5 min post injection time.\nMice were induced with general anesthesia using isoflurane at 2.5% in 100% oxygen at a flow rate of 1 L/min. Once anesthetized, the mouse was moved to a supine position with the isoflurane maintained at 2.0% during surgery. The nerve was then isolated as described in previous publications^10,11,17. The core body temperature was monitored with a rectal probe and maintained around 37° C. with a heating pad and heat lamp. Prior to recording and nerve placement within the cuff, the electrode was submerged briefly in saline solution.\nThe electrophysiological signals were digitized from the vagus nerve using a Plexon data acquisition system (Omniplex, Plexon Inc., Dallas, Tex.). Recordings were sampled at 40 kHz with a 120 Hz filter and 50 gain. All signals were recorded from a bipolar cuff electrode referenced to the animal ground placed between the right salivary gland and the skin. In experiments with IL-1β challenge, following acquisition of the baseline activity (10 min), 350 ng/kg recombinant human IL-1β (eBioscience, San Diego, Calif.) was administered intraperitoneally; recordings were then continued for 10 min post-injection.\nAnalysis of raw recordings was done on Spike2 software (version 7, CED). Raw recordings were filtered (using a high pass filter) and smoothed. To identify neural signals, a user-specific adaptive threshold was employed. All signals were identified as neuronal or non-neuronal. Non-neuronal signals, which consisted mainly of cardiac and respiratory components, were manually removed. All recordings with no identifiable neuronal spikes were removed from analyses.\nTo recognize how knocking out TRPA1 further effects inflammatory signaling, TRPA1 KO and WT mice were injected with either saline or IL-1β ([…]).\nTo further determine fiber specificity, a TRPV1 cell depletion model was employed by breeding TRPV1-Cre mice with ROSA-DTA mice. […] To identify if TRPV1 itself is necessary for propagation of the signal, recordings were done in a genetic TRPV1 knockout (TRPV1 KO) mouse. […] To determine a molecular target on TRPV1+ neurons mediating afferent IL-1β signaling, the cation channel TRPA1 was identified. TRPA1 is found on a subset of TRPV1+ neurons; approximately 30%. However, TRPA1 co-localized with TRPV1 on 97% of TRPA1+ neurons^26."}, "[4]": {"assay": "IL-1β induced inflammation: serum and spleen cytokines", "type": "in vivo", "conditions": "TRPA1 KO mice; after IL-1β administration; 3 hours", "method": "Mice were injected with 3.2 μg/kg IL-1β ip or saline. Three hours later the mice were euthanized, and blood, spleen, and two brain regions collected. Blood was collected by cardiac puncture. To obtain serum from these samples, blood was allowed to clot for approximately 45 min to 1 h. The blood was then spun at 5,000 rpm for 10 min and 10,000 For 2 min. Supernatants (serum) were collected and stored at −20° C. prior to use. The spleen was homogenized using a bullet blender homogenizer (Next Advance, Averill Park, N.Y., USA) and the recommended bead homogenization kit and protocol in a 4° C. walk-in refrigerator. The homogenized sample was then spun down at 15,000 rpm for 10 min with the supernatants collected and stored at −20° C. Splenic protein level was measured using the Bradford assay. IL-6, IL-1β, KC/Gro (CXCL1), and IL-1β for both serum and spleen were measured on a custom mouse inflammatory electrochemiluminescent kit (Meso Scale Discovery, Gaithersburg, Md., USA) according to manufacturer's recommendations. The brain stem region was collected on ice, using a binocular dissection microscope and placed in the same tube. Brain regions were snap frozen on dry ice and transferred to storage at −80° C.\nThe serum and splenic tissue of these mice were then analyzed for known downstream signaling molecules of IL-1β, IL-6, IL-1β and KC/GRO (CXCL1)."}}}
{"substance": "IL-1β: interleukin 1β; recombinant human IL-1β for nerve recordings, murine (rmIL-1β) for thermoregulation", "values": [{"measurement": "Neurons with slow inward currents", "setting": "[1]; IL-1β 20 μg/ml bath application, held at −65 mV, 4 out of 332 neurons", "result": 1.2, "unit": "%"}, {"measurement": "Amplitude of IL-1β induced currents", "setting": "[1]; IL-1β 20 μg/ml, −65 mV, n=4", "result": "108±23", "unit": "pA"}, {"measurement": "Action potential threshold after IL-1β", "setting": "[1]; current-clamp mode, reduced from −25±2 mV, n=4", "result": "−31±3", "unit": "mV"}, {"measurement": "Neurons showing calcium influx (increase of fluorescence)", "setting": "[2]", "result": 1.8, "unit": "%"}, {"measurement": "Vagus nerve activation", "setting": "[3]; TRPA1 KO mice", "result": "fails to induce activation of the vagus nerve"}, {"measurement": "Vagus nerve activity", "setting": "[3]; TRPV1 KO mice", "result": "significant increase"}, {"measurement": "Vagus nerve activity", "setting": "[3]; TRPV1 cell depletion model (TRPV1-Cre x ROSA-DTA mice)", "result": "No significant enhancement of vagus nerve activity"}, {"measurement": "Vagus nerve activation", "setting": "[3]; wild type mice", "result": "induces activation of the vagus nerve"}, {"measurement": "IL-6, IL-1β and KC/GRO (CXCL1) in serum and spleen", "setting": "[4]", "result": "further increases"}]}
